Molecules are shown by their SMILES. Where “and” joins values, the source holds several entries; their conditions need not be identical. Equal entries are not always repeated. Inconclusive results and toxic doses are left out.

The subject of this experiment is BDF1 mice, L1210 6-MP/6-TG resistant leukemia ip, survival T/C. Put plainly: NCI In Vivo Anticancer Drug Screen. Data for tumor model L1210 Leukemia resistant to 6-MP and 6-Thioguanine; NSC 755, NSC 752 (intraperitoneal) in B6D2F1 (BDF1) mice. As to conditions: endpoint: mean survival time, higher = longer survival. The procedure:
The antitumor activity of compounds was measured in mice bearing transplantable tumors. Survival or tumor size were measured and the results are expressed as the measurement made in the treated group (T) divided by the measurement made in the vehicle treated control group (C). The tumor model used in this assay is L1210 Leukemia resistant to 6-MP and 6-Thioguanine; NSC 755, NSC 752 (intraperitoneal) in B6D2F1 (BDF1) mice

Regarding `CSc1ncnc2c1ncn2C1OC(CO)C(O)C1O` (stereo not given), the T/C (dose: 2.0 mg/kg/injection, schedule: Q01DX Z (ip), vehicle: saline) is 117 % of control; the T/C (dose: 3.0 mg/kg/injection, schedule: Q01DX015 (ip), vehicle: saline) was 119 % of control and 121 % of control; the T/C (dose: 4.0 mg/kg/injection, schedule: Q01DX Z (oral), vehicle: saline) is 100 % of control; the T/C (dose: 7.0 mg/kg/injection, schedule: Q01DX015 (ip), vehicle: saline) is 158 % of control; the T/C (dose: 7.0 mg/kg/injection, schedule: Q01DX Z (ip), vehicle: saline) is 151 % of control; the T/C (dose: 8.0 mg/kg/injection, schedule: Q01DX Z (ip), vehicle: saline) was 168 % of control. For the same compound, the T/C (dose: 8.0 mg/kg/injection, schedule: Q01DX Z (oral), vehicle: saline) is 107 % of control; the T/C (dose: 10.0 mg/kg/injection, schedule: Q## X032 (ip), vehicle: saline) was 114 % of control; the T/C (dose: 12.0 mg/kg/injection, schedule: Q01DX001 (ip), vehicle: alkali diluted with saline) was 102 % of control and 103 % of control; the T/C (dose: 12.0 mg/kg/injection, schedule: Q01DX Z (ip), vehicle: saline) is 175 % of control; the T/C (dose: 12.0 mg/kg/injection, schedule: Q01DX Z (oral), vehicle: saline) is 100 % of control; the T/C (dose: 13.0 mg/kg/injection, schedule: Q02DX008 (ip), vehicle: saline) is 122 % of control. Further, the T/C runs as follows: (dose: 13.0 mg/kg/injection, schedule: Q## X004 (ip), vehicle: saline) 108 % of control; (dose: 16.0 mg/kg/injection, schedule: Q01DX015 (ip), vehicle: saline) 152 % of control and 166 % of control; (dose: 16.0 mg/kg/injection, schedule: Q01DX Z (ip), vehicle: clinical formulation) 123 % of control; (dose: 16.0 mg/kg/injection, schedule: Q01DX Z (ip), vehicle: saline) 191 % of control; (dose: 16.0 mg/kg/injection, schedule: Q01DX Z (oral), vehicle: saline) 111 % of control; (dose: 18.0 mg/kg/injection, schedule: Q01DX001 (ip), vehicle: alkali diluted with saline) 116 % of control and 103 % of control. The T/C runs as follows: (dose: 18.0 mg/kg/injection, schedule: Q01DX001 (ip), vehicle: saline) 112 % of control and 98 % of control; (dose: 21.0 mg/kg/injection, schedule: Q01DX015 (ip), vehicle: saline) 159 % of control; (dose: 24.0 mg/kg/injection, schedule: Q01DX015 (ip), vehicle: saline) 163 % of control; (dose: 24.0 mg/kg/injection, schedule: Q01DX Z (ip), vehicle: saline) 119 % of control; (dose: 24.0 mg/kg/injection, schedule: Q01DX Z (oral), vehicle: saline) 113 % of control and 120 % of control; (dose: 24.0 mg/kg/injection, schedule: Q## X032 (ip), vehicle: saline) 150 % of control. Also, the T/C (dose: 26.0 mg/kg/injection, schedule: Q01DX001 (ip), vehicle: alkali diluted with saline) is 118 % of control and 111 % of control; the T/C (dose: 26.0 mg/kg/injection, schedule: Q01DX001 (ip), vehicle: saline) is 104 % of control; the T/C (dose: 27.0 mg/kg/injection, schedule: Q01DX001 (ip), vehicle: saline) is 114 % of control and 108 % of control; the T/C (dose: 32.0 mg/kg/injection, schedule: Q01DX Z (ip), vehicle: saline) was 121 % of control; the T/C (dose: 32.0 mg/kg/injection, schedule: Q01DX Z (oral), vehicle: saline) was 120 % of control and 106 % of control; the T/C (dose: 32.0 mg/kg/injection, schedule: Q## X032 (ip), vehicle: saline) was 152 % of control and 158 % of control. Further, the T/C is 114 % of control (dose: 36.0 mg/kg/injection, schedule: Q01DX015 (ip), vehicle: saline); 95 % of control (dose: 37.0 mg/kg/injection, schedule: Q01DX Z (ip), vehicle: saline); 119 % of control and 106 % of control (dose: 40.0 mg/kg/injection, schedule: Q01DX001 (ip), vehicle: alkali diluted with saline); 117 % of control and 98 % of control and 108 % of control (dose: 40.0 mg/kg/injection, schedule: Q01DX001 (ip), vehicle: saline); 158 % of control (dose: 44.0 mg/kg/injection, schedule: Q02DX008 (ip), vehicle: saline); 92 % of control and 94 % of control (dose: 45.0 mg/kg/injection, schedule: Q01DX015 (ip), vehicle: saline). The T/C is, setting by setting: (dose: 45.0 mg/kg/injection, schedule: Q## X004 (ip), vehicle: saline) 157 % of control; (dose: 48.0 mg/kg/injection, schedule: Q01DX Z (ip), vehicle: saline) 96 % of control; (dose: 48.0 mg/kg/injection, schedule: Q01DX Z (oral), vehicle: saline) 95 % of control and 103 % of control; (dose: 48.0 mg/kg/injection, schedule: Q## X032 (ip), vehicle: saline) 164 % of control and 171 % of control; (dose: 50.0 mg/kg/injection, schedule: Q01DX Z (ip), vehicle: saline) 90 % of control; (dose: 54.0 mg/kg/injection, schedule: Q01DX001 (ip), vehicle: saline) 109 % of control. Also, the T/C by setting is: (dose: 60.0 mg/kg/injection, schedule: Q01DX001 (ip), vehicle: saline) 119 % of control and 107 % of control; (dose: 61.0 mg/kg/injection, schedule: Q01DX001 (ip), vehicle: alkali diluted with saline) 113 % of control; (dose: 61.0 mg/kg/injection, schedule: Q01DX001 (ip), vehicle: saline) 113 % of control; (dose: 67.0 mg/kg/injection, schedule: Q## X004 (ip), vehicle: saline) 162 % of control; (dose: 72.0 mg/kg/injection, schedule: Q## X032 (ip), vehicle: saline) 165 % of control and 166 % of control; (dose: 81.0 mg/kg/injection, schedule: Q01DX001 (ip), vehicle: saline) 124 % of control. The T/C is, setting by setting: (dose: 90.0 mg/kg/injection, schedule: Q01DX001 (ip), vehicle: saline) 109 % of control; (dose: 92.0 mg/kg/injection, schedule: Q01DX001 (ip), vehicle: alkali diluted with saline) 123 % of control and 111 % of control; (dose: 100.0 mg/kg/injection, schedule: Q02DX008 (ip), vehicle: saline) 99 % of control; (dose: 100.0 mg/kg/injection, schedule: Q## X004 (ip), vehicle: saline) 170 % of control; (dose: 108.0 mg/kg/injection, schedule: Q## X032 (ip), vehicle: saline) 116 % of control and 98 % of control; (dose: 138.0 mg/kg/injection, schedule: Q01DX001 (ip), vehicle: alkali diluted with saline) 116 % of control. For the same compound, the T/C is, setting by setting: (dose: 138.0 mg/kg/injection, schedule: Q01DX001 (ip), vehicle: saline) 118 % of control; (dose: 150.0 mg/kg/injection, schedule: Q## X004 (ip), vehicle: saline) 164 % of control; (dose: 207.0 mg/kg/injection, schedule: Q01DX001 (ip), vehicle: alkali diluted with saline) 119 % of control and 124 % of control; (dose: 300.0 mg/kg/injection, schedule: Q01DX001 (ip), vehicle: saline) 111 % of control.
With `Nc1nc(=S)c2ncn(C3OC(CO)C(O)C3O)c2[nH]1` (stereo not given), the T/C runs as follows: (dose: 3.75 mg/kg/injection, schedule: Q01DX Z (ip), vehicle: carboxymethylcellulose (CMC)) 96 % of control; (dose: 5.0 mg/kg/injection, schedule: Q01DX Z (ip), vehicle: carboxymethylcellulose (CMC)) 93 % of control; (dose: 7.5 mg/kg/injection, schedule: Q01DX Z (ip), vehicle: carboxymethylcellulose (CMC)) 107 % of control; (dose: 10.0 mg/kg/injection, schedule: Q01DX Z (ip), vehicle: carboxymethylcellulose (CMC)) 93 % of control.
Regarding `O=CN(O)CC(=O)O`, the T/C was 100 % of control (dose: 62.0 mg/kg/injection, schedule: Q01DX Z (ip), vehicle: saline); 112 % of control (dose: 125.0 mg/kg/injection, schedule: Q01DX Z (ip), vehicle: saline); 107 % of control (dose: 250.0 mg/kg/injection, schedule: Q01DX Z (ip), vehicle: saline); 105 % of control (dose: 500.0 mg/kg/injection, schedule: Q01DX Z (ip), vehicle: saline).
With `Nc1ccc(C(=O)NO)cc1`, the T/C was 102 % of control (dose: 112.5 mg/kg/injection, schedule: Q01DX015 (ip), vehicle: carboxymethylcellulose (CMC)); 91 % of control (dose: 225.0 mg/kg/injection, schedule: Q01DX015 (ip), vehicle: carboxymethylcellulose (CMC)); 90 % of control (dose: 450.0 mg/kg/injection, schedule: Q01DX015 (ip), vehicle: carboxymethylcellulose (CMC)); 97 % of control (dose: 900.0 mg/kg/injection, schedule: Q01DX015 (ip), vehicle: carboxymethylcellulose (CMC)).

These data come from PubChem BioAssay AID308 (DTP/NCI, 2004).
